Source: patent US7674795B2, “Fluorene derivatives, composition containing said derivatives and the use thereof” (Aventis Pharma SA, priority 2005, dated 2010)
Where a name gives a salt, the structure may show the parent alone.

target: Hsp82 (Saccharomyces cerevisiae, UniProt P02829); experiment: PK/LDH enzyme coupling test of the ATPase activity of Hsp82 (NADH decrease at 340 nm); assay type: biochemical; settings: 1 μM Hsp82, 250 μM ATP, 37° C., pyruvate kinase/lactate dehydrogenase coupling, read-out: Hsp82 ATPase IC50
Method in brief: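 Yeast Hsp82 ATPase was coupled to PK/LDH, with ADP formation followed continuously as NADH loss at 340 nm at 37 °C. The mixture was preincubated 30 min at 37 °C, and the reaction was started with compound at variable concentrations plus Hsp82 at 1 μM. Initial rates (μM ADP/min) came from the tangent slope at origin, expressed as % inhibition.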

Sequence of Hsp82 (P02829 whole entry): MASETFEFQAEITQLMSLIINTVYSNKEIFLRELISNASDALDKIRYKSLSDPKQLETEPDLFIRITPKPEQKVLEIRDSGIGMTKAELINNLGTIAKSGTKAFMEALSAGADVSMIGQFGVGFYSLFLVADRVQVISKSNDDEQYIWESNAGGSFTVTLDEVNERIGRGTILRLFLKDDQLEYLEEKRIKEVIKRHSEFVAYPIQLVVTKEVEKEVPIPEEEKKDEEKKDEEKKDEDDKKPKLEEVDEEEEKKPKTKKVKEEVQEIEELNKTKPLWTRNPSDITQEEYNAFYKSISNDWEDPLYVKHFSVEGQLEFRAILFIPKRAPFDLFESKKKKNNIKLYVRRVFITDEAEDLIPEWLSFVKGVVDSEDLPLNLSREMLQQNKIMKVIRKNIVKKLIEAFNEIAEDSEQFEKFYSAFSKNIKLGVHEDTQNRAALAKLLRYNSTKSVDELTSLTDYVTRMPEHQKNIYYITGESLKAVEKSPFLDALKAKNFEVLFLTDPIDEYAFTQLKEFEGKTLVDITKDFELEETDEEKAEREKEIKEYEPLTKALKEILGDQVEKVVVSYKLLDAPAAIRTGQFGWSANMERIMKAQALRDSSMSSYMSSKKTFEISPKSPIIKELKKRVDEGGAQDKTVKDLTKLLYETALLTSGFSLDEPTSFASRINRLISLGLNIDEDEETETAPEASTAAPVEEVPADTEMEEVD

| Structure (SMILES) | IC50 |
| --- | --- |
| COCCCNC(=O)c1cc(C(=O)NC2c3ccccc3-c3c(-c4nc5ccncc5[nH]4)cccc32)ccn1 (racemic) [Example 112, 4-{[4-(3H-imidazo[4,5-c]pyridin-2-yl)-9H-fluoren-9(R,S)-yl]amide}-2-[(3-methoxy-propyl)-amide] of pyridine-2,4-dicarboxylic acid] | 1 to 10 µM |
| S=C(NC1c2ccccc2-c2c(-c3nc4cnccc4[nH]3)cccc21)c1cccc2ncccc12 (racemic) [Example 55, [4-(3H-imidazo[4,5-c]pyridin-2-yl)-9H-fluoren-9(R,S)-yl]amide trifluoroacetate of quinoline-5-carbothioic acid] | < 1 µM |
| O=C(Cc1ccc(Cl)nc1)NC1c2ccccc2-c2c(-c3nc4cnccc4[nH]3)cccc21 (racemic) [Example 25, 2-(6-chloropyridin-3-yl)-N-[4-(3H-imidazo[4,5-c]pyridin-2-yl)-9H-fluoren-9(R,S)-yl]-acetamide] | 1 to 10 µM |
| O=C(NC1c2ccccc2-c2c(-c3nc4ccncc4[nH]3)cccc21)c1ccncc1 (racemic) [Example 47, N-[4-(3H-imidazo[4,5-c]pyridin-2-yl)-9H-fluoren-9(R,S)-yl]-isonicotinamide] | < 1 µM |
| c1cncc(CON=C2c3ccccc3-c3c2cccc3-c2nc3cnccc3[nH]2)c1 (mixture of isomers) [Example 11, O-(pyridin-3-yl)methyl 4-(3H-imidazo[4,5-c]pyridin-2-yl)-fluoren-9-one oxime (Z, E)] | 1 to 10 µM |
| ON=C1c2ccccc2-c2c1cccc2-c1nc2ccc(O)cc2[nH]1 (racemic) [Example 107, 4-(6-hydroxy-1H-benzimidazol-2-yl)-fluoren-9-one oxime (Z,E)] | 10 to 100 µM |
| O=C(NC1c2ccccc2-c2c(-c3nc4ccncc4[nH]3)cccc21)c1cc(N2CCCCC2)nc2ccccc12 (racemic) [Example 119, [4-(3H-imidazo[4,5-c]pyridin-2-yl)-9H-fluoren-9(R,S)-yl]amide of 2-piperidin-1-yl-quinoline-4-carboxylic acid] | 1 to 10 µM |
| O=C(NC1c2ccccc2-c2c(-c3nc4ccncc4[nH]3)cccc21)C1CCOCC1 (racemic) [Example 32, [4-(3H-imidazo[4,5-c]pyridin-2-yl)-9H-fluoren-9(R,S)-yl]amide of tetrahydropyran-4-carboxylic acid] | 10 to 100 µM |
| OC=C1c2ccccc2-c2c1cccc2-c1nc2cnccc2[nH]1 (mixture of isomers) [Example 13, [4-(1H-imidazo[4,5-c]pyridin-2-yl)-fluoren-(9)-ylidene]-methanol, equimolecular mixture of the Z and E isomers] | 10 to 100 µM |
| NC1c2ccccc2-c2c(-c3nc4cnccc4[nH]3)cccc21 (racemic) [Example 6, 4-(3H-imidazo[4,5-c]pyridin-2-yl)-9H-fluorene-9(R,S)-amine] | 10 to 100 µM |
| c1ccc2c(c1)-c1c(-c3nc4cnccc4[nH]3)cccc1C2NCc1ccc2[nH]ccc2c1 (racemic) [Example 18, N-[4-(3H-imidazo[4,5-c]pyridin-2-yl)-9H-fluoren-9(R,S)-yl]-(1H-indol-5-ylmethyl)-amine] | 10 to 100 µM |
| NC(=O)CCC(=O)NC1c2ccccc2-c2c(-c3nc4cnccc4[nH]3)cccc21 (racemic) [Example 40, N-[4-(3H-imidazo[4,5-c]pyridin-2-yl)-9H-fluoren-9(R,S)-yl]-succinamide trifluoroacetate] | 1 to 10 µM |
| CCOC(=O)CNC(=O)NC1c2ccccc2-c2c(-c3nc4ccncc4[nH]3)cccc21 (racemic) [Example 78, ethyl ester of {3-[4-(3H-imidazo[4,5-c]pyridin-2-yl)-9H-fluoren-9(R,S)-yl]-ureido}-acetic acid] | 10 to 100 µM |

Results, then the compound that gave them:

| IC50 | Structure (SMILES) |
| --- | --- |
| 1 to 10 µM | FC1c2ccccc2-c2c(-c3nc4cnccc4[nH]3)cccc21 (racemic) [Example 10, 2-[9(R,S)-fluoro-9H-fluoren-4-yl]-1H-imidazo[4,5-c]pyridine] |
| 1 to 10 µM | O=C(NC1c2ccccc2-c2c(-c3nc4ccncc4[nH]3)cccc21)c1ccnc2ncccc12 (racemic) [Example 97, hydrochloride of [4-(3H-imidazo[4,5-c]pyridin-2-yl)-9H-fluoren(R,S)-9-yl]amide of 1,8-naphthyridine-4-carboxylic acid] |
| < 1 µM | CCc1cc(C(=O)NC2c3ccccc3-c3c(-c4nc5ccncc5[nH]4)cccc32)ccn1 (racemic) [Example 82, 2-ethyl-N-[4-(3H-imidazo[4,5-c]pyridin-2-yl)-9H-fluoren-9(R,S)-yl]-isonicotinamide] |
| 1 to 10 µM | O=C(NC1c2ccccc2-c2c(-c3nc4ccncc4[nH]3)cccc21)c1ccc2[nH]ncc2c1 (racemic) [Example 45, [4-(3H-imidazo[4,5-c]pyridin-2-yl)-9H-fluoren-9(R,S)-yl]amide of 1H-indazole-5-carboxylic acid] |
| 10 to 100 µM | O=C(NC1c2ccccc2-c2c(-c3nc4ccncc4[nH]3)cccc21)c1cccc2cnccc12 (racemic) [Example 35, [4-(3H-imidazo[4,5-c]pyridin-2-yl)-9H-fluoren-9(R,S)-yl]amide of isoquinoline-5-carboxylic acid] |
| 1 to 10 µM | O=C(NC1c2ccccc2-c2c(-c3nc4ccncc4[nH]3)cccc21)N1CCOCC1 (racemic) [Example 51, [4-(3H-imidazo[4,5-c]pyridin-2-yl)-9H-fluoren-9(R,S)-yl]amide trifluoroacetate of morpholine-4-carboxylic acid] |
| 1 to 10 µM | O=C(Cc1n[nH]c(S)n1)NC1c2ccccc2-c2c(-c3nc4ccncc4[nH]3)cccc21 (racemic) [Example 42, N-[4-(3H-imidazo[4,5-c]pyridin-2-yl)-9H-fluoren-9(R,S)-yl]-2-(5-mercapto-4H-1,2,4-triazol-3-yl)-acetamide trifluoroacetate] |
| 1 to 10 µM | CNc1cc(C(=O)NC2c3ccccc3-c3c(-c4nc5ccncc5[nH]4)cccc32)ccn1 (racemic) [Example 116, N-[4-(3H-imidazo[4,5-c]pyridin-2-yl)-9H-fluoren-9(R,S)-yl]-2-methylamino-isonicotinamide] |
| < 1 µM | O=C(NC1c2ccccc2-c2c(-c3nc4ccncc4[nH]3)cccc21)c1ccnc(Br)c1 (racemic) [Example 102, 2-bromo-N-[4-(3H-imidazo[4,5-c]pyridin-2-yl)-9H-fluoren-9(R,S)-yl]-isonicotinamide] |
| 1 to 10 µM | O=C(NC1c2ccccc2-c2c(-c3nc4ccncc4[nH]3)cccc21)c1ccnc(CO)c1 (racemic) [Example 94, 2-hydroxymethyl-N-[4-(3H-imidazo[4,5-c]pyridin-2-yl)-9H-fluoren-9(R,S)-yl]-isonicotinamide] |
| 10 to 100 µM | Nc1cccc(C(=O)NC2c3ccccc3-c3c(-c4nc5ccncc5[nH]4)cccc32)c1 (racemic) [Example 115, 3-amino-N-[4-(3H-imidazo[4,5-c]pyridin-2-yl)-9H-fluoren-9(R,S)-yl]-benzamide] |
| 10 to 100 µM | O=CNC1c2ccccc2-c2c(-c3nc4cnccc4[nH]3)cccc21 (racemic) [Example 12, N-[4-(3H-imidazo[4,5-c]pyridin-2-yl)-9H-fluoren-9(R,S)-yl]-formamide] |
| 1 to 10 µM | O=C(NC1c2ccccc2-c2c(-c3nc4ccncc4[nH]3)cccc21)c1cccc(O)c1 (racemic) [Example 50, hydrochloride of 3-hydroxy-N-[4-(3H-imidazo[4,5-c]pyridin-2-yl)-9H-fluoren-9(R,S)-yl]-benzamide] |
